Measurements as given in patent US8933094B2, “Ethynyl compounds useful for treatment of CNS disorder” (Hoffmann-La Roche Inc., priority 2009, dated 2015).

Molecular target: T1, human mGlu5a receptor (Homo sapiens, UniProt P41594)
T1 construct: expressed in transfected cells
Assay: Intracellular Ca2+ mobilization assay (mGlu5 PAM)
Format: cell-based
Conditions: for EC50: HEK-293 cells stably transfected with human mGlu5a, L-glutamate added at EC20 after 10-30 min pre-incubation with test compound, read-out: EC50 (nM) mGlu5PAM; for Emax: maximal response in % of the maximal stimulatory effect obtained with saturating concentrations of L-glutamate, read-out: Eff. (%)
Method: A monoclonal HEK-293 cell line stably transfected with a cDNA encoding for the human mGlu5a receptor was generated; for the work with mGlu5 Positive Allosteric Modulators (PAMs), a cell line with low receptor expression levels and low constitutive receptor activity was selected to allow the differentiation of agonistic versus PAM activity. Cells were cultured according to standard protocols (Freshney, 2000) in Dulbecco's Modified Eagle Medium with high glucose supplemented with 1 mM glutamine, 10% (vol/vol) heat-inactivated bovine calf serum, Penicillin/Streptomycin, 50 μg/ml hygromycin and 15 μg/ml blasticidin (all cell culture reagents and antibiotics from Invitrogen, Basel, Switzerland).
About 24 hrs before an experiment, 5×10^4 cells/well were seeded in poly-D-lysine coated, black/clear-bottomed 96-well plates. The cells were loaded with 2.5 μM Fluo-4AM in loading buffer (1×HBSS, 20 mM HEPES) for 1 hr at 37° C. and washed five times with loading buffer. The cells were transferred into a Functional Drug Screening System 7000 (Hamamatsu, Paris, France), and 11 half logarithmic serial dilutions of test compound at 37° C. were added and the cells were incubated for 10-30 min. with on-line recording of fluorescence. Following this pre-incubation step, the agonist L-glutamate was added to the cells at a concentration corresponding to EC20 (typically around 80 μM) with on-line recording of fluorescence; in order to account for day-to-day variations in the responsiveness of cells, the EC20 of glutamate was determined immediately ahead of each experiment by recording of a full dose-response curve of glutamate.
Responses were measured as peak increase in fluorescence minus basal (i.e. fluorescence without addition of L-glutamate), normalized to the maximal stimulatory effect obtained with saturating concentrations of L-glutamate. Graphs were plotted with the % maximal stimulatory using XLfit, a curve fitting program that iteratively plots the data using Levenburg Marquardt algorithm. The single site competition analysis equation used was y=A+((B−A)/(1+((x/C)D))), where y is the % maximal stimulatory effect, A is the minimum y, B is the maximum y, C is the EC50, x is the log 10 of the concentration of the competing compound and D is the slope of the curve (the Hill Coefficient). From these curves the EC50 (concentration at which half maximal stimulation was achieved), the Hill coefficient as well as the maximal response in % of the maximal stimulatory effect obtained with saturating concentrations of L-glutamate were calculated.
A depression of the signal observed after addition of the EC20 concentration of L-glutamate was indicative of an inhibitory activity of the test compound.

T1 sequence (P41594 21-1180 isoform P41594-2 limits assumed): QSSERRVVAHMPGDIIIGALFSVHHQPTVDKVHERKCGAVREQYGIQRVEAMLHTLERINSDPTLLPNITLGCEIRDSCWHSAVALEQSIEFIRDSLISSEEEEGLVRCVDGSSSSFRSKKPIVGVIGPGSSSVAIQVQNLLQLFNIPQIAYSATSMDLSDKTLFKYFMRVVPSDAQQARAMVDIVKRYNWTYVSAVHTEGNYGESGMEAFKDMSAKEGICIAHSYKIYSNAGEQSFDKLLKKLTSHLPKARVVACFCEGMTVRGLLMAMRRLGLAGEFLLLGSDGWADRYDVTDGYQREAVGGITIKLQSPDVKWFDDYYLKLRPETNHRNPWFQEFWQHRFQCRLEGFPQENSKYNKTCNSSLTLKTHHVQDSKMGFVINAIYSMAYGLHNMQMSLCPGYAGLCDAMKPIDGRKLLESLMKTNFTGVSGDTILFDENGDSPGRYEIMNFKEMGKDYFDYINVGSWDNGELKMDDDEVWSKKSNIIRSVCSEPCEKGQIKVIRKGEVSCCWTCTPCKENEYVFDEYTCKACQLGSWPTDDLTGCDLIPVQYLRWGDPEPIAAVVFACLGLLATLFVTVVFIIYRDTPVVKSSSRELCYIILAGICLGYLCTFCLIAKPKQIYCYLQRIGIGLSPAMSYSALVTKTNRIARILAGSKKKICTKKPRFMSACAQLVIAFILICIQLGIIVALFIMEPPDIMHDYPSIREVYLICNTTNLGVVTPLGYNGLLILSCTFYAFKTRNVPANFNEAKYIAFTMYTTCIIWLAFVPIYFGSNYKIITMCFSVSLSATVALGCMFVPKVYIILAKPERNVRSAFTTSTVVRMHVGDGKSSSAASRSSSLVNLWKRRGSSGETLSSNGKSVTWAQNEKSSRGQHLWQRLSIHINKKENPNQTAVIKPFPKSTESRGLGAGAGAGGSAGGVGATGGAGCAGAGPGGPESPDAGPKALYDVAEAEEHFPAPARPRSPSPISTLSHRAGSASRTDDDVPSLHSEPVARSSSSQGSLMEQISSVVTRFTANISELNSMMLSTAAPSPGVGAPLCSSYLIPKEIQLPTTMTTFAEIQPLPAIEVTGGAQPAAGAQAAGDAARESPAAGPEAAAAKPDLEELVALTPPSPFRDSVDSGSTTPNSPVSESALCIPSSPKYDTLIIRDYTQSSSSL

C(#Cc1ccc2ccnn2c1)c1ccccc1 [Example 33, 6-Phenylethynyl-pyrazolo[1,5-a]pyridine]
EC50: 136 nM | Emax: 88%

CC(C)(C)c1cc2ncc(C#Cc3cncc(F)c3)cn2n1 [Example 29, 2-tert-Butyl-6-(5-fluoro-pyridin-3-ylethynyl)-pyrazolo[1,5-a]pyrimidine]
EC50: 161 nM | Emax: 61%

CC(C)(C)c1cc2ncc(C#Cc3ccccc3F)cn2n1 [Example 10, 2-tert-Butyl-6-(2-fluoro-phenylethynyl)-pyrazolo[1,5-a]pyrimidine]
EC50: 19 nM | Emax: 80%

C(#Cc1cnc2ncnn2c1)c1ccccc1 [Example 32, 6-Phenylethynyl-[1,2,4]triazolo[1,5-a]pyrimidine]
EC50: 210 nM | Emax: 100%

CC(C)(C)c1cc2ncc(C#Cc3ccc(N)cc3)cn2n1 [Example 27, 4-(2-tert-Butyl-pyrazolo[1,5-a]pyrimidin-6-ylethynyl)-phenylamine]
EC50: 41 nM | Emax: 99%

Cc1cc2ncc(C#Cc3ccncc3)cn2n1 [Example 6, 2-Methyl-6-pyridin-4-ylethynyl-pyrazolo[1,5-a]pyrimidine]
EC50: 498 nM | Emax: 82%

CC(C)(C)c1cc2ncc(C#Cc3cccnc3)cn2n1 [Example 13, 2-tert-Butyl-6-pyridin-3-ylethynyl-pyrazolo[1,5-a]pyrimidine]
EC50: 33 nM | Emax: 88%

COc1ccc(C#Cc2cnc3cc(C(C)(C)C)nn3c2)cc1 [Example 15, 2-tert-Butyl-6-(4-methoxy-phenylethynyl)-pyrazolo[1,5-a]pyrimidine]
EC50: 68 nM | Emax: 53%

CC(C)(C)c1cc2ncc(C#Cc3cncc(Cl)c3)cn2n1 [Example 23, 2-tert-Butyl-6-(5-chloro-pyridin-3-ylethynyl)-pyrazolo[1,5-a]pyrimidine]
EC50: 34 nM | Emax: 59%

C(#Cc1cnc2nc(N3CCCC3)nn2c1)c1ccccc1 [Example 51, 6-Phenylethynyl-2-pyrrolidin-1-yl-[1,2,4]triazolo[1,5-a]pyrimidine]
EC50: 56 nM | Emax: 141%

CC(C)(C)c1cc2ncc(C#Cc3cccc(F)c3)cn2n1 [Example 11, 2-tert-Butyl-6-(3-fluoro-phenylethynyl)-pyrazolo[1,5-a]pyrimidine]
EC50: 5 nM | Emax: 86%

Cc1cccc(C#Cc2cnc3cc(C(C)(C)C)nn3c2)c1 [Example 16, 2-tert-Butyl-6-m-tolylethynyl-pyrazolo[1,5-a]pyrimidine]
EC50: 100 nM | Emax: 50%

CC(C)(CO)c1nc2ccc(C#Cc3ccccc3)cn2n1 [Example 40, 2-Methyl-2-(6-phenylethynyl-[1,2,4]triazolo[1,5-a]pyridin-2-yl)-propan-1-ol]
EC50: 66 nM | Emax: 88%

CC(C)(C)c1cc2ncc(C#Cc3ccccc3)cn2n1 [Example 9, 2-tert-Butyl-6-phenylethynyl-pyrazolo[1,5-a]pyrimidine]
EC50: 5 nM | Emax: 75%

C(#Cc1cnc2ccnn2c1)c1ccccc1 [Example 1, 6-Phenylethynyl-pyrazolo[1,5-a]pyrimidine]
EC50: 70 nM | Emax: 116%

C(#Cc1cnc2nc(N3CCOCC3)nn2c1)c1ccccc1 [Example 47, 2-Morpholin-4-yl-6-phenylethynyl-[1,2,4]triazolo[1,5-a]pyrimidine]
EC50: 69 nM | Emax: 119%

CC(C)(C)c1nc2ncc(C#Cc3cncc(Cl)c3)cn2n1 [Example 46, 2-tert-Butyl-6-(5-chloro-pyridin-3-ylethynyl)-[1,2,4]triazolo[1,5-a]pyrimidine]
EC50: 47 nM | Emax: 49%

CC(C)(C)c1cc2ccc(C#Cc3ccccc3)cn2n1 [Example 41, 2-tert-Butyl-6-phenylethynyl-pyrazolo[1,5-a]pyridine]
EC50: 32 nM | Emax: 122%

CC(C)(C)c1cc2ncc(C#Cc3ccc(F)cc3)cn2n1 [Example 12, 2-tert-Butyl-6-(4-fluoro-phenylethynyl)-pyrazolo[1,5-a]pyrimidine]
EC50: 7 nM | Emax: 75%

Cc1cccc(C#Cc2cnc3nc(N4CCOCC4)nn3c2)c1 [Example 48, 2-Morpholin-4-yl-6-m-tolylethynyl-[1,2,4]triazolo[1,5-a]pyrimidine]
EC50: 58 nM | Emax: 84%

C(#Cc1ccc2cnnn2c1)c1ccccc1 [Example 34, 6-Phenylethynyl-[1,2,3]triazolo[1,5-a]pyridine]
EC50: 50 nM | Emax: 77%

CC(C)(C)c1cc2ncc(C#Cc3ccc(N)nc3)cn2n1 [Example 22, 5-(2-tert-Butyl-pyrazolo[1,5-a]pyrimidin-6-ylethynyl)-pyridin-2-ylamine]
EC50: 255 nM | Emax: 98%

Cc1ccc(C#Cc2cnc3cc(C(C)(C)C)nn3c2)cc1 [Example 19, 2-tert-Butyl-6-p-tolylethynyl-pyrazolo[1,5-a]pyrimidine]
EC50: 100 nM | Emax: 68%

Cc1ccc(C#Cc2cnc3cc(C)nn3c2)cc1 [Example 7, 2-Methyl-6-p-tolylethynyl-pyrazolo[1,5-a]pyrimidine]
EC50: 132 nM | Emax: 73%

Cc1cc2ncc(C#Cc3ccc(Cl)cc3)cn2n1 [Example 8, 6-(4-Chloro-phenylethynyl)-2-methyl-pyrazolo[1,5-a]pyrimidine]
EC50: 148 nM | Emax: 69%

CC(C)(C)c1nc2ncc(C#Cc3cc(F)ccc3F)cn2n1 [Example 43, 2-tert-Butyl-6-(2,5-difluoro-phenylethynyl)-[1,2,4]triazolo[1,5-a]pyrimidine]
EC50: 14 nM | Emax: 37%

CC(C)(C)c1cc2ncc(C#Cc3ccncc3)cn2n1 [Example 14, 2-tert-Butyl-6-pyridin-4-ylethynyl-pyrazolo[1,5-a]pyrimidine]
EC50: 4 nM | Emax: 37%

CC(C)(C)c1cc2ncc(C#Cc3ccc(Cl)nc3)cn2n1 [Example 21, 2-tert-Butyl-6-(6-chloro-pyridin-3-ylethynyl)-pyrazolo[1,5-a]pyrimidine]
EC50: 183 nM | Emax: 77%

CC(C)(C)c1cc2ncc(C#Cc3ccc(F)c(F)c3)cn2n1 [Example 25, 2-tert-Butyl-6-(3,4-difluoro-phenylethynyl)-pyrazolo[1,5-a]pyrimidine]
EC50: 45 nM | Emax: 93%

Clc1cccc(C#Cc2cnc3nc(N4CCOCC4)nn3c2)c1 [Example 50, 6-(3-Chloro-phenylethynyl)-2-morpholin-4-yl-[1,2,4]triazolo[1,5-a]pyrimidine]
EC50: 39 nM | Emax: 88%

CC(C)(C)c1nc2ncc(C#Cc3cccc(F)c3)cn2n1 [Example 44, 2-tert-Butyl-6-(3-fluoro-phenylethynyl)-[1,2,4]triazolo[1,5-a]pyrimidine]
EC50: 9 nM | Emax: 85%

N#Cc1cnn2cc(C#Cc3ccccc3)cnc12 [Example 30, 6-Phenylethynyl-pyrazolo[1,5-a]pyrimidine-3-carbonitrile]
EC50: 310 nM | Emax: 63%

COc1cccc(C#Cc2cnc3cc(C(C)(C)C)nn3c2)c1 [Example 17, 2-tert-Butyl-6-(3-methoxy-phenylethynyl)-pyrazolo[1,5-a]pyrimidine]
EC50: 104 nM | Emax: 41%

CC(C)(C)c1cc2ncc(C#Cc3cccc(N)c3)cn2n1 [Example 35, 3-(2-tert-Butyl-pyrazolo[1,5-a]pyrimidin-6-ylethynyl)-phenylamine]
EC50: 37 nM | Emax: 69%

CC(C)(O)c1cc2ncc(C#Cc3ccccc3)cn2n1 [Example 28, 2-(6-Phenylethynyl-pyrazolo[1,5-a]pyrimidin-2-yl)-propan-2-ol]
EC50: 152 nM | Emax: 59%

CC(C)(C)c1nc2ccc(C#Cc3ccccc3)cn2n1 [Example 39, 2-tert-Butyl-6-phenylethynyl-[1,2,4]triazolo[1,5-a]pyridine]
EC50: 30 nM | Emax: 54%

CC(C)(C)c1nc2ncc(C#Cc3ccc(F)c(F)c3)cn2n1 [Example 45, 2-tert-Butyl-6-(3,4-difluoro-phenylethynyl)-[1,2,4]triazolo[1,5-a]pyrimidine]
EC50: 28 nM | Emax: 54%

CC(C)(C)c1nc2ncc(C#Cc3ccccc3)cn2n1 [Example 42, 2-tert-Butyl-6-phenylethynyl-[1,2,4]triazolo[1,5-a]pyrimidine]
EC50: 9 nM | Emax: 73%

Cc1cc2ncc(C#Cc3ccccc3F)cn2n1 [Example 3, 6-(2-Fluoro-phenylethynyl)-2-methyl-pyrazolo[1,5-a]pyrimidine]
EC50: 47 nM | Emax: 81%
